Data on three compounds can be found in patent US20250296955A1, “PIN1 TARGETING COMPOUNDS AND DEGRADERS AND METHODS THEREOF” (The Regents of the University of California, priority 2024, published 2025).

Each structure is given as a SMILES string. Read-outs that look alike come from different tables or passages of the source. *1 amine or outer side, *2 acyl side, *3 side chain or, on linkers, in order; H or OH if unused. Where a SMILES comes first, the peptide text is derived from it. [ ]: non-standard residue; d: D form. The star is where a group is joined. ξ: configuration not given here. Trp(5-OMe) = COc1ccc2[nH]cc(C[C@H](N)C(=O)O)c2c1; X1 = CC(OP(=O)(O)O)[C@@H](N[*:1])C(=O)[*:2]; 2Nal = N[C@@H](Cc1ccc2ccccc2c1)C(=O)O; Pip = O=C(O)[C@@H]1CCCCN1; ξPip = O=C(O)C1CCCCN1; ClAc = O=C(CCl)*

The target in test [1] is T1, Pin1 (Homo sapiens, UniProt Q13526). The settings on record: Pinch B J, et al. (2020); read-out: IC50 value as reported by a fluorescence polarization assay; cited from earlier work.
In test [2] the target is T1, Pin1. Nature of the test: DELFIA displacement assay (displacement of biotinylated D-peptide from 6His-Pin1). It counts as binding. Further details: human Pin1 (residues 1-163); made in house; host or cells: E. coli BL21 (DE3) gold pLysS. The source says: (§1) Important to the success of structure activity relations studies, robust biochemical, biophysical, and cell-based assays were implemented that enabled rapid and iterative evaluations of test Pin1 targeting agents. First, the DELFIA (Dissociation-enhanced lanthanide fluorescent immunoassay) assay platform was used to derive a robust heterogeneous assay to monitor the ability of test agents to displace the binding between Pin1 and the D-Peptide (Table 1), which was obtained in a biotinylated form (FIG. 10). […] Second, for an orthogonal biophysical assay denaturation thermal shift measurements were used. Pin1 was incubated with vehicle control (buffer with 1% DMSO), or test agents at protein: ligand ratio of 1:2 (20 μM protein-40 μM compound) for 10 min at 10° C. in the presence of the fluorescent dye SYPRO Orange. The samples were gradually exposed to increasing temperature (linear gradient from 10° C. to 95° C.), causing the protein to unfold. This unfolding allowed the fluorescent dye to bind to the protein's exposed hydrophobic residues, resulting in an increase in fluorescence. The thermal shift assay measures the protein's melting temperature (Tm), which is the temperature at which the protein denatures by 50%. Ligands can affect a protein target to thermal denaturation, which could manifest in a positive or negative shift in the protein denaturation temperature (ΔTm) (Bai N, Roder H, Dickson A, & Karanicolas J (2019) Scientific Reports 9; and Kranz J K & Schalk-Hihi C (2011) Fragment-Based Drug Design: Tools, Practical Approaches, and Examples 493:277-298). Using these two assays, a series of commercially available Pin1 inhibitors were profiled (Table 1). The non-covalent agent D-peptide resulted only moderately active, with an IC50 value of ˜3 μM that closely resembled the dissociation constant for this agent determined via isothermal titration calorimetry, and the ˜ 3 μM IC50 value as reported by a fluorescence polarization assay (Pinch B J, et al. (2020) Nat Chem Biol 16(9):979-987). […] (Table 1) was observed.
For the reported covalent agents such as sulfopin (Dubiella C, et al. (2021) Nat Chem Biol 17(9):954-963), BJP-07-017-3 (Pinch B J, et al. (2020) Nat Chem Biol 16(9):979-987), or KPT-6566 (Campaner E, et al. (2017) Nat Commun 8:15772), a 6-h pre-incubation period was included in the DELFIA assay to allow the covalent reaction to take place. For those agents, IC50 values that fell in the low nanomolar range were observed, consistent with what was reported previously for those compounds. […] To make those determinations in a broader panel of cancer cell lines three pancreatic cancer cell lines, BxPC3, MIA-PaCa-2, and PANC-1, the breast cancer cell line MDA-MB-231, the prostate cancer cell line PC3, and the non-small cell lung cancer cell line A549 were chosen. Each cell line represents various states of KRAS activating mutations (for example BxPC3 is wt-KRAS, while MIAPaCa2 carries the KRAS(G12C) mutation, and the PANC-1 the KRAS(G12D) (Miquel M, Zhang S, & Pilarsky C (2021) Front Cell Dev Biol 9:748631), A549 is KRAS(G12S) (Wang H, et al. (2019) EBioMedicine 49:106-117), MDA-MB-231 is KRAS(G13D) (Kim R K, et al. (2015) Exp Mol Med 47(1):e137), PC3 is wt-KRAS (Bouali S, et al. (2009) Oncol Rep 21(3):731-735). Pin1 protein levels in these cell lines were established using a specific Pin1 antibody in western blot analyses (FIG. 1A). The data confirmed that all these selected human cancer cell lines expressed a significant level of Pin1 (FIG. 1A).
Each well of 96-well streptavidin-coated plates (PerkinElmer) was incubated with 100 μL of 200 nM biotinylated D-peptide for 2 h and washed 3 times with a wash solution (PerkinElmer). Subsequently, a mixture containing Pin1, and a serial dilution of the test compounds were pre-incubated for 6 h. Eu-N1-labeled anti-6x-His antibody (PerkinElmer, 1:2000) was then added to this mixture and further incubated in the biotinylated D-peptide-bound plates for another 2 h. […]

Test [3] concerns the target T1, Pin1. Briefly: Denaturation thermal shift assay (SYPRO Orange). It is filed as binding. On the set-up: human Pin1 (residues 1-163); made in house; host or cells: E. coli BL21 (DE3) gold pLysS.
Description: as §1
Thermal shift assays for Pin1 alone and in the presence of the inhibitors were obtained with a BioRad CFX Connect Real-Time PCR Detection System. Each data point was collected in quadruplicate. Each sample was prepared using buffer 50 mM Phosphate pH 7.5, 150 mM NaCl, 1% DMSO. Protein: ligand ratio used was 1:2 (20 μM protein-40 μM compound), and SYPRO Orange was used. Incubation of the Pin1 protein with the compounds was performed at 10° C. for 10 min. Samples were then heated from 10 to 95° C. with heating increments of 0.05° C., over 30 min. Fluorescence intensity was measured within the excitation/emission ranges 470-505/540-700 nm.

For test [4], the target named is T1, Pin1. Nature of the test: Pin1 degradation in MIA PaCa-2 cells (western blot). It is filed as cell-based. Particulars: after 24 h (FIG. 14C). As to the method:
BxPC3, MIA PaCa-2, PANC-1, MDA-MB-231, and PC3 were obtained from the American Type Culture Collection (ATCC) and A549 NucLight Red cells were purchased from Essen Bioscience. BxPC3 and PC3 cells were cultured in RPMI (Corning) while PANC-1 cells were cultured in DMEM (Corning). MIA PaCa-2 cells were also cultured in DMEM, but with the addition of 2.5% horse serum. A549 NucLight cells were cultured in a Ham's F-12 nutriend mixture with GlutaMAX-1 (Gibco). All of the culture media were supplemented with 10% FBS. MDA-MB-231 cells were nuclear-labeled red (MDA-MB-231 NucLight Red) with the IncuCyte NucLight lentivirus reagent (Essen Bioscience) according to the manufacturer's protocol and were cultured in DMEM supplemented with 10% FBS and 1 μg/mL puromycin. Cells were all maintained at 37° C. in a humidified incubator with 5% CO2.
At the end of the treatments, cells were lysed with a lysis buffer containing 20 mM Tris, pH 7.4, 120 mM NaCl, 1% Triton X-100, 0.5% sodium deoxycholate, 0.1% SDS, 1% IGEPAL, 5 mM EDTA, protease inhibitor cocktail and PhosSTOP (Sigma-Aldrich). Lysates were then centrifuged at 16,000×g for 20 min at 4° C. and supernatants were collected. Protein concentrations were determined using the Pierce BCA Protein Assay Kit (ThermoFisher Scientific) according to the manufacturer's instruction. […]

The target in test [5] is T1, Pin1. Particulars: Pu W, et al. (2018); read-out: dissociation constant by isothermal titration calorimetric measurements; cited from earlier work. Background: ITC needs no label: the signal is the heat of the interaction.

T1 sequence (Q13526 whole entry, the tested form may be a part): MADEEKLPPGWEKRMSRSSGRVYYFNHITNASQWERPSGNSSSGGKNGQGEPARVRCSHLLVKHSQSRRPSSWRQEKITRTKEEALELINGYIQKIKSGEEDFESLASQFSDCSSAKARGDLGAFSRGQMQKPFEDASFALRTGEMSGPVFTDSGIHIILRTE

Take `CC(=O)N[C@@H](Cc1ccccc1)C(=O)N[C@@H](C(=O)N1CCCCC1C(=O)N[C@@H](Cc1ccc2ccccc2c1)C(=O)N[C@@H](CCC(N)=O)C(N)=O)C(C)OP(=O)(O)O` (stereo partly drawn) [158A1, reference compound] (Ac-F[X1][ξPip][2Nal]Q-NH2): the half-maximal inhibitory concentration (IC50) on Pin1 [1] is approximately 3 µM; at Pin1 [2] it was approximately 3 µM; on Pin1 [2] (Table 1, 6-h pre-incubation followed by 2-h incubation, ± SD from duplicates), 2.91 ± 0.103 µM. The “ΔTm (° C.) 30 min” value at Pin1 [3] (Table 1, Protein:compound 1:2, 20X Sypro Orange, 50 mM phosphate pH 7.5, 150 mM NaCl, 3% DMSO, ± SE of four replicates) amounted to 3.40 ± 0.16 °C. Moreover, the shift in melting temperature (ΔTm) on Pin1 [3] (running text and figure legends) is 3.4 °C.

For `COc1ccc2[nH]cc(C[C@H](NC(=O)[C@@H]3CCCCN3C(=O)[C@H](Cc3ccccc3)NC(=O)CCl)C(N)=O)c2c1` [158F10] (ClAc-Phe-[Pip]-[Trp(5-OMe)]-NH2), the IC50 on Pin1 [2] (Table 3, ± SD from duplicates) was found to be 0.126 ± 0.005 µM. Also, the “ΔTm (° C.)” value on Pin1 [3] (Table 3, single transition, ± SE of four replicates) is −10.16 ± 0.07 °C. Besides, the “degradation of Pin1 (western blot)” value at Pin1 [4] is reported as “degradation of Pin1”.

Turning to `Nc1nc(OCc2ccc(CNC(=O)C(F)(F)F)cc2)c2nc[nH]c2n1` [API-1], on Pin1 [5], the Kd is 2.9 µM.

A word on the IC50: it is the point on the concentration scale where inhibition reaches its midpoint. As a reminder, the ΔTm is the change in melting temperature against a reference sample.
